Experimental data as given in US5418232A, “Diazabicycloalkene derivatives” (Daiichi Pharmaceutical Co., Ltd., priority 1992, dated 1995).

How the values were obtained:
Acute toxicity = format: in vivo; conditions: mouse, in vivo, po
male mice = test: Acute toxicity; format: in vivo; conditions: oral 2 g/kg
[1] = test system: spontaneously hypertensive rats; test: Effect on renal blood flow (Doppler probe); format: in vivo, rat; conditions: for Increase in Renal Blood Flow 1 Hr after Administration: oral, dose which reduced blood pressure by about 50 mmHg; for activity in increasing the renal blood flow vs reference drug (in words): vs EMD57283
Description: Twenty-week-old male spontaneously hypertensive rats (body weight: 350-430 g) were anesthetized with pentobarbital (30 mg/kg, i.p.). An incision was made in the abdomen on the left side, and a Doppler probe for blood flow measurement was fitted to the left renal artery, and the code (wire lead) of the probe was passed under the back skin and taken out from the back of the neck. After 1 week from the operation, the code of the probe was connected to a Doppler blood flow meter to start measurement of the renal blood flow. After the renal blood flow reached to a steady state, a test compound was orally administered, and changes in renal blood flow were observed up to 9 hours. The test compound was used at a dose which reduced blood pressure by about 50 mmHg.

[2] = test system: spontaneously hypertensive rats; test: Blood pressure fall after i.v. compound with or without glibenclamide pretreatment; format: in vivo, rat
Description: 2) Twenty-two-week-old male spontaneously hypertensive rats (body weight, 350-420 g) were given an intravenous injection of 30 mg/kg of glibenclamide (Sigma Chemical Company) having an antagonistic activity against potassium channel openers or, as a control, a solvent.

[3] = test system: spontaneously hypertensive rats; test: Antihypertensive activity in spontaneously hypertensive rats (oral, tail-cuff); format: in vivo, rat
Description: Male spontaneously hypertensive rats (16 to 20-week-old; body weight: 300-400 g) fed ab lib. were forceably given oral administration of a test compound suspended in 0.5% (w/v) carboxymethyl cellulose aqueous solution. After 1, 2, 4, 6, 8, 24, 30 or 48 hours from the administration, the systolic blood pressure was measured by a tail-cuff method described in Arzneimittel-Forschung, Vol. 18, pp. 1285-1287 (1968)).
The antihypertensive activity of the test compound was obtained as an effective dose for reducing blood pressure by 50 mmHg (ED50mmHg). Further, the time of onset of the maximum activity and the maximum increase in heart rate at a dose for reducing blood pressure by 50 to 60 mmHg were measured.
The statistical difference between a test compound and EMD57283 was analyzed by the Student's t-test.

[4] = dose reducing blood pressure by 50 to 60 mmHg

| SMILES | LD50 at 336 h (Acute toxicity) [mg/kg] | safety (in words) (male mice) | Increase in Renal Blood Flow 1 Hr after Administration [1] [%] | activity in increasing the renal blood flow vs reference drug (in words) [1] | Average Blood Pressure Fall ([2]; 1 Hr., 0.1 mg/kg i.v. + Glibenclamide 30 mg/kg i.v.) [mmHg] | Average Blood Pressure Fall ([2]; 1 Hr., 0.1 mg/kg i.v. + solvent) [mmHg] | Average Blood Pressure Fall ([2]; 2 Hrs., 0.1 mg/kg i.v. + Glibenclamide 30 mg/kg i.v.) [mmHg] | Average Blood Pressure Fall ([2]; 2 Hrs., 0.1 mg/kg i.v. + solvent) [mmHg] | Average Blood Pressure Fall ([2]; 3 Hrs., 0.1 mg/kg i.v. + Glibenclamide 30 mg/kg i.v.) [mmHg] | Average Blood Pressure Fall ([2]; 3 Hrs., 0.1 mg/kg i.v. + solvent) [mmHg] | Average Blood Pressure Fall ([2]; 4 Hrs., 0.1 mg/kg i.v. + Glibenclamide 30 mg/kg i.v.) [mmHg] | Average Blood Pressure Fall ([2]; 4 Hrs., 0.1 mg/kg i.v. + solvent) [mmHg] | potassium channel opening activity (in words) ([2]; conclusion from Table 6, glibenclamide antagonism) | antihypertensive activity (in words) [3] | duration of activity (in words) [3] | ED (50 mmHg) ([3]; Rattus norvegicus, systolic blood pressure, read-out: ED50mmHg (effective dose for reducing blood pressure by 50 mmHg)) [mg/kg] | Max. increase of Heat Rate [3, 4] [%] | Time for Onset of Max. Activity [3, 4] [h] |
| --- | --- | --- | --- | --- | --- | --- | --- | --- | --- | --- | --- | --- | --- | --- | --- | --- | --- | --- |
| CC1(C)Oc2ccc(C#N)cc2[C@@H](OC2=NN(Cc3ccccc3)C(=O)C3CC23)[C@@H]1O (relative stereo) [Example 1, 3,4-trans-4-(3-Benzyl-2-oxo-3,4-diazabicyclo[4.1.0]hept-4-en-5-yloxy)-3,4-dihydro-2,2-dimethyl-3-hydroxy-2H-1-benzopyran-6-carbonitrile] | > 2000 | highly safe | 34.0 ± 6.1 | more potent activity in increasing the renal blood flow than the reference drug | 15.9 ± 3.7 | 41.4 ± 6.1 | 22.0 ± 5.7 | 50.4 ± 4.4 | 28.0 ± 5.3 | 55.9 ± 4.3 | 26.9 ± 5.7 | 55.1 ± 4.7 | possesses potassium channel opening activity | – | – | – | – | – |
| CN1N=C(O[C@@H]2c3cc(C#N)ccc3OC(C)(C)[C@H]2O)C2CC2C1=O (relative stereo) [Example 2, 3,4-trans-3,4-dihydro-2,2-dimethyl-3-hydroxy-4-(3-methyl-2-oxo-3,4-diazabicyclo[4.1.0]hept-4-en-5-yloxy)-2H-1-benzopyran-6-carbonitrile] | > 2000 | highly safe | – | – | – | – | – | – | – | – | – | – | – | – | – | – | – | – |
| CC1(C)Oc2ccc(C#N)cc2[C@@H](OC2=NN(Cc3ccccc3Cl)C(=O)C3CC23)[C@@H]1O (relative stereo) [Example 33, (3S,4R,1'R*,6'S*)-4-(3-(2-chlorobenzyl)-2-oxo-3,4-diazabicyclo[4.1.0]hept-4-en-5-yloxy)-3,4-dihydro-2,2-dimethyl-3-hydroxy-2H-1-benzopyran-6-carbonitrile] | > 2000 | highly safe | 14.5 ± 4.0 | more potent activity in increasing the renal blood flow than the reference drug | – | – | – | – | – | – | – | – | – | potent antihypertensive activity | long duration of activity | 0.031 | 19.4 ± 3.1 | 6.6 ± 0.5 |
